Measurements as given in patent US20240218333A1, “GENERATING QUIESCENT HEPATIC STELLATE CELLS AND THEIR USE IN LIVER MODELS” (The Cleveland Clinic Foundation, priority 2022, published 2024).

How the values were obtained:
Type in all cases: cell-based, human
[1] = test system: hPSC-derived and primary HSCs; test: Cell migration (scratch) assay; details: 48 hrs
hPSC-derived HSCs = test: In vitro activation of quiescent HSCs; details: for activation of hPSC-HSCs (COL1A1, FN, ACTA2 western blot): TGFβ1 5 ng/ml, FBS 10%, PDGF 30 ng/ml, 72 hrs
[2] = test system: hPSC-derived multicellular liver culture; test: LPS treatment of multicellular liver culture
Excerpt: FIG. 2. Characterization of the multicellular liver culture. (A) Albumin secretion from three-cell (HEP/HSC/Mac), two-cell (HEP/HSC), and HEP monoculture, n=3. (B) Analysis of CYP3A4 and CYP2B6 transcripts in hepatocytes, n=4. (C) Analysis of LRAT transcript in HSCs from three-cell (HSC/HEP/Mac), two-cell (HSC/HEP, HSC/Mac) and HSC monoculture, n=4. (D) Staining of lipid droplets, hepatocytes (ALB), and HSCs (PCDH7). (E) Analysis of IL10 transcript in individual cell-type at three-weeks post-coculture, n=4. (F) Analysis of IL6 and TNF transcripts in macrophages, n=4. Positive control: IFNγ-treated macrophages. (G) Cytokines analysis in liver cultures treated with LPS (500 ng/ml) or control, with or without macrophages, n=4. Data are mean±S.D; Student's t-test (two-tailed) with Welch's corrections (B); One-way ANOVA with Tukey's multiple comparisons test (A, C, E-G).
FIG. 10. Characterization of multicellular liver culture. (A). Transcript levels of PPARG were analyzed in purified HSCs from the hPSC-derived liver cultures with three-cell (HSC, HEP, and Mac), two-cell (HSC and HEP, HSC and Mac) and HSC monoculture at the indicated time points post co-culture by RT-qPCR. […] Transcript levels of IL10 and macrophages marker CD163 were analyzed in purified macrophages from the hPSC-derived liver cultures with three-cell (HSC, HEP, and Mac) and two-cell (Mac and HEP, Mac and HSC) by RT-qPCR. […] HSC activation markers FN and COL1A1 were analyzed by western blot in HSCs purified from three-cell (HEP, HSC and Mac) and two-cell (HSC and HEP, HSC and Mac) liver cultures treated with LPS (100 ng/ml) for one week. […] Transcript levels of TGFB1 and IL1B in pooled cells from the liver cultures of three-cell (HSC, HEP, and Mac) and two-cell (HSC and HEP) were analyzed at one week post LPS (100 ng/ml) treatment by RT-qPCR. […] Transcript levels of IL1B and TGFB1 in purified individual cells from liver cultures treated with either vehicle control or LPS (100 ng/ml) for one week were analyzed by RT-qPCR. Fold changes were calculated by normalized to individual cells treated with vehicle control. […]

[3] = test system: Kupffer cells and hPSC-macrophages; test: Stimulation of macrophages, cytokine transcripts by RT-qPCR; details: LPS 100 ng/ml, 12 hrs
PNPLA3^WT liver cultures = test: IL6 supplementation of liver cultures
Experimental: FIG. 15. Elevated IL6/STAT3 activity mediates the enhanced susceptibility to NAFLD phenotypes in PNPLA3^I148M liver cultures (A). Analysis of IL6 by ELISA in the supernatant of shRNA control (Ctrl) or sh-IL6 liver cultures maintained in lipotoxic condition for two weeks. Shown are mean±SD from 3 independent experiments. (B). From the experiment in (A), the transcript levels of CHI3L1 and CXCL10 in purified macrophages were analyzed by RT-qPCR. Shown are mean±SD from 3 independent experiments. (C-D). From the experiment in (A), HSCs were purified and subject to western blot analysis of STAT3 and phosphorylated STAT3 (T705) (C), and to RT-qPCR analysis of the transcript levels of inflammatory cytokine CCL5 and quiescent marker PPARG (D). For western blot, RPS11 was used as a loading control. For RT-qPCR, shown are mean±SD from 3 independent experiments. (E-H). The isogenic pair of liver cultures were maintained in lipotoxic condition for two weeks in the presence of either isotype control antibody (Ctrl) or IL6 neutralizing antibody (nIL6 Ab, 100 ng/ml). Individual cells were purified from these liver cultures and subject to RT-qPCR analysis of lipogenic-associated enzyme genes ACC1 and FASN in hepatocytes (E) and inflammatory cytokine CHI3L1 in macrophages (F), western blot analysis of HSC activation markers FN, COL1A1, and ACTA2 (G), and phosphorylated STAT3 (H) in HSCs. For western blot, RPS11 was used as a loading control. For RT-qPCR, shown are mean±SD from 3 independent experiments. (I-J). PNPLA3^WT liver cultures were treated with either healthy or lipotoxic condition for 5 days and then IL6 (100 pg/ml) was added to one set of lipotoxic treated cultures for additional 2 days. Hepatocytes were purified and subject to analysis for triacylglycerol (TAG) level (I), transcript levels of ACC1 and FASN (J) by RT-qPCR. For TAG quantification, shown are mean±SD for 4 independent experiments; for RT-qPCR, shown are mean±SD from 3 independent experiments. Statistical analysis was performed using a two-tailed unpaired t-test with Welch's corrections or One-way ANOVA/Tukey's multiple comparisons test to calculate exact p-values.
As a complementary approach, we determined if IL6 was sufficient to enhance NAFLD susceptibility in lipotoxic conditions by supplementing IL6 in PNPLA3^WT cultures to a level similar to that of PNPLA3^I148M cultures. We began after 5 days of lipotoxic exposure when disease phenotypes begin to manifest (FIG. 5B) and only maintained liver cultures for 2 more days to minimize the compounded effect of continuous IL6 secretion on our observations. […] Changes in glucose secretion were not detected, however, likely due to the brevity of IL6 supplementation.
Intracellular triacylglycerol levels were analyzed for hPSC-derived HEPs purified from different conditions using commercial kits (Promega) per the manufacturer's instructions.

[4] = lipotoxic 5 days, then IL6 100 pg/ml for 2 days

TGFβ1: transforming growth factor beta 1, pro-fibrotic stimulus
motility of hPSC-HSCs (closure distance) ([1]; activating stimulus, similar to pHSCs): enhanced motility
activation of hPSC-HSCs (COL1A1, FN, ACTA2 western blot) (hPSC-derived HSCs): clearly activated

lipopolysaccharide [LPS]
cytokine induction in hPSC-HSCs (IL6, CXCL10 transcripts) (hPSC-derived HSCs; LPS 500 ng/ml, 12 hrs): induced cytokine
HSC activation markers in liver culture ([2]; LPS 100 ng/ml, one week): elevated activation markers
cytoplasmic lipid droplets in HSCs in liver culture ([2]; LPS 100 ng/ml, one week): lost cytoplasmic lipid droplets
IL1β and TGFβ1 levels produced by liver cultures ([2]; LPS treatment (500 ng/ml, FIG. 2G)): much higher levels
inflammatory cytokine transcription in macrophages (CXCL10, IL6, IL1B) [3]: transcribed inflammatory cytokines

C[C@@H](N)[C@H]1CC[C@H](C(=O)Nc2ccncc2)CC1 [Y-27632, reference compound]
motility of activated hPSC-HSCs (closure distance) ([1]; Y-27632 20 μM): markedly inhibited

IL6: interleukin 6, cytokine supplemented to liver cultures
regulation of genes that drive the GO results of I148M homozygous patients (PNPLA3^WT liver cultures; IL6-treated liver cultures): readily regulated
activation of HSCs from PNPLA3^WT cultures (PNPLA3^WT liver cultures; IL6 addition under lipotoxic conditions): dramatically activated
changes in glucose secretion (PNPLA3^WT liver cultures; [4]): not detected
intracellular TAG levels in PNPLA3^WT hepatocytes (PNPLA3^WT liver cultures; [4]): increased
lipogenesis-associated enzyme expression in PNPLA3^WT hepatocytes (PNPLA3^WT liver cultures; [4]): increased

B1: PDGF: platelet-derived growth factor, pro-fibrotic stimulus (protein, UniProt P01127 82-190, looked up)
Platelet-derived growth …: SLGSLTIAEPAMIAECKTRTEVFEISRRLIDRTNANFLVWPPCVEVQRCSGCCNNRNVQCRPTQVQLRPVQVRKIEIVRKKPIFKKATVTLEDHLACKCETVAAARPVT
modifications: homodimer PDGF-BB
notes: platelet-derived growth factor, pro-fibrotic stimulus
activation of hPSC-HSCs (COL1A1, FN, ACTA2 western blot) (hPSC-derived HSCs): clearly activated
